Measured values as given in US20210260141A1, “MSC- AND EXOSOME-BASED IMMUNOTHERAPY” (EXOSTEM BIOTEC LTD., priority 2018, published 2021).

B1: miR-34: microRNA; pre-miR SEQ ID NO: 10, mature 5p SEQ ID NO: 11, 3p SEQ ID NO: 12 (nucleic acid, listed as Homo sapiens)
chain: UGGCAGUGUCUUAGCUGGUUGUUGUGAGCAAUAGUAAGGAAGCAAUCAGCAAGUAUACUGCCCUA
modifications: expressed or natural sequence

What was measured:
Format in all cases: cell-based
[1] = tested on: glioma stem cells (GSCs); assay: self-renewal of GSCs (secondary neurosphere formation) after coculture with MSCs or addition of their exosomes; conditions: trans-well coculture
[2] = tested on: 3′ UTR of PD-L1; assay: PD-L1 3′ UTR luciferase reporter in GSCs cocultured with MSCs or treated with their exosomes; conditions: pre-miR expressed in CH-, AD- and UC-MSCs, trans-well coculture with GSCs
[3] = tested on: PD-1 3′ UTR; assay: PD-1 3′ UTR luciferase reporter in HEK293 cells; conditions: miR transfected in CH-MSCs; same whether cocultured or exosomes added
Description: PD-L1 is only half of the immune surveillance axis, its receptor PD-1 is expressed on immune cells and is required for cancer cell immune inhibition. […] CH-MSCs were also transfected with miR-124, miR-34, miR-30b and a combination of all three and then PD-1 expression was assessed. […] The effect was the same whether cells were cocultured, or whether exosomes were added. miR-34 has already been reported to target PD-L1, thus this miR and miR-124 are both effective at targeting both sides of the PD-L1/PD-1 axis.

[4] = miR expressed in CH- and UC-MSCs

Molecule	effect on self-renewal of GSCs ([1]; miR expressed in AD-MSCs)	effect on self-renewal of GSCs [1, 4]	luciferase expression (PD-L1 reporter) [2]	effect on PD-1 reduction (luciferase reporter) [3]
miR-29c: microRNA; pre-miR SEQ ID NO: 4, mature 5p SEQ ID NO: 5, 3p SEQ ID NO: 6 (ACCGAUUUCUCCUGGUGUUCAGAGUCUGUUUUUGUCUAGCACCAUUUGAAAUCGGUUA; expressed or natural sequence; listed as Homo sapiens)	more pronounced effect	negligible effect	decreased luciferase expression	–
miR-378: microRNA; pre-miR SEQ ID NO: 32, mature 5p SEQ ID NO: 33, 3p SEQ ID NO: 34 (CUCCUGACUCCAGGUCCUGUGUGUUACCUAGAAAUAGCACUGGACUUGGAGUCAGAAGGC; expressed or natural sequence; listed as Homo sapiens)	more pronounced effect	negligible effect	decreased luciferase expression	–
miR-30b: microRNA; pre-miR SEQ ID NO: 13, mature 5p SEQ ID NO: 14, 3p SEQ ID NO: 15 (UGUAAACAUCCUACACUCAGCUGUAAUACAUGGAUUGGCUGGGAGGUGGAUGUUUACUUC; expressed or natural sequence; listed as Homo sapiens)	–	–	–	enhanced the PD-1 reduction
B1	–	–	–	enhanced the PD-1 reduction
